The results in this text go back to patent EP0533825B1, “ETHER LIPID-NUCLEOSIDE COVALENT CONJUGATES” (WAKE FOREST UNIVERSITY, priority 1990, dated 1991).

Where only a bound is given, the exact number is not on record here.

Test [1] has as its system CEM-SS cells. In words: Cell cytotoxicity (Table 1). It counts as cell-based. The following applies: read-out: Inhibitory Concentration50 For: Cell Cyto-toxicity.
The test system of test [2] is HIV-1. The following applies: persistently infected monocyte/macrophage (U1) cells. An excerpt: Anti-HIV1 Activity of Lipid-Nucleoside Conjugates. […] In brief, CEM-SS cell monolayers were infected with HIV-1. […] Plaques were counted at five days after infection. In this assay HIV-1 syncytial plaques are seen as large, multicellular foci (10 to 25 nuclei/syncytium) that appear either brown and granular or clear. Silnce the number of HIV-1 syncytial plaques correlates with reverse transcriptase (RT) and p24 core antigen activity in the HIV-1 infected cell overlay fluids, the syncytial plaque assay can be used to quantify the amount of infectious virus. […] The activity of p24 core antigen induced by HIV-1 infection of CEM-SS cells was measured spectrophotometrically using the commercial Coulter EIA.
(§1) Anti-HIV1 Activity of Lipid-Nucleoside Conjugates in Monocyte/Macrophages. Monocyte/macrophages represent a major reservoir of HIV-1 in the infected human host. […] However, these cells tend to be resistent to dideoxynucleoside prodrugs due to low levels of kinases needed to activate the prodrugs. See C. […]

In test [3] the test system is HIV-1. The following applies: persistently infected monocyte/macrophage (U1) cells.
Text: as §1
This is another data set of the same source.

Test [4] concerns CEM-SS cells. In words: CEM-SS cell growth, 3H-Tdr pulse labelling to measure DNA synthesis. Type of test: cell-based. The settings on record: Homo sapiens, 48 hours at 37°C, then 3H-Tdr pulse for 8 hours. As to the method: To determine the IC₅₀ for cell growth, CEM-SS cells in suspension culture (10,000 cells/ml RPMI-1640 growth medium) were incubated with serial dilutions of compound at 37°C for 48 hours and then pulsed labelled with 1 microCi of ³H-Tdr (SA = 20 Ci/mmole) for 8 hours at 37°C to measure DNA synthesis.

Turning to `Cc1cn([C@H]2C[C@H](N=[N+]=[N-])[C@@H](CO)O2)c(=O)[nH]c1=O` [AZT, 3'-azido-3'-deoxythymidine], the IC50 in the test on CEM-SS cells [1] (Homo sapiens, CEM-SS) was 5.6 µM. In addition, in the test on HIV-1 [2], the “Percent of Control (RT DPM)” value was 90% of Control and the “Percent of Control (p24 Core Ag)” value is reported as 101% of Control. The “Percent of Control (PFU)” value with HIV-1 [3] was 87% of Control. The compound further gave an IC50 in the test with CEM-SS cells [4] of 5.1 µM.

For the compound `CCCCCCCCCCCCCCCCOCC(COP(=O)(O)OC[C@H]1O[C@@H](n2cc(C)c(=O)[nH]c2=O)C[C@@H]1N=[N+]=[N-])OCC` (stereo partly drawn) [Compound B, 3'-Azido-3'-deoxythymidine-5'-monophosphate-D,L-3-hexadecyloxy-2-ethoxypropane], the IC50 with CEM-SS cells [1] (Homo sapiens, CEM-SS) came to 35 ± 2.1 µM.

“3'-Azido-3'-deoxythymidine-5'-monophosphate-D,L-3-octadecanamido-2-ethoxypropane [Compound A]”: the IC50 in the test with CEM-SS cells [1] came out at 53.8 µM.

In the case of `CCCCCCCCCCCCCCCCSCC(COP(=O)(O)OC[C@H]1O[C@@H](n2cc(C)c(=O)[nH]c2=O)C[C@@H]1N=[N+]=[N-])OC` (stereo partly drawn) [Compound C, 3'-Azido-3'-deoxythymidine-5'-monophosphate-D,L-3-hexadecylthio-2-methoxypropane], the IC50 with CEM-SS cells [1] (Homo sapiens, CEM-SS) was found to be 29.2 ± 5.7 µM.

Turning to `CCCCCCCCCCCCCCCCCC(=O)NCC(COP(=O)([O-])OC(CC(=O)OC[C@H]1O[C@@H](n2cc(C)c(=O)[nH]c2=O)C[C@@H]1N=[N+]=[N-])C[N+](C)(C)C)OCC` (stereo partly drawn) [BB, 3'-Azido-3-deoxythymidine-5'-butyrate-γ-N,N,N-trimethyl-ammonium-β-(1-phospho-2-ethoxy-3-octadecanamidopropane)], in the test on CEM-SS cells [4], the IC50 was found to be 13.7 µM.

`CCCCCCCCCCCCCCCCOCC(COP(=O)([O-])OC(CC(=O)OC[C@H]1O[C@@H](n2cc(C)c(=O)[nH]c2=O)C[C@@H]1N=[N+]=[N-])C[N+](C)(C)C)OCC` (stereo partly drawn) [Compound AA, 3'-Azido-3'-deoxythymidine-5'-butyrate-γ-N,N,N-trimethyl-ammonium-β-(1-phospho-2-ethoxy-3-hexadecyloxypropane)] displayed an IC50 in the test on CEM-SS cells [4] of 13.5 µM.

Regarding `O=c1[nH]cnc2c1ncn2[C@H]1CC[C@@H](CO)O1` [DDI, dideoxyinosine], in the test on CEM-SS cells [1] (Homo sapiens, CEM-SS), the IC50 was over 100 µM.
